{"source": "patent US20080095810A1", "about": "“Nanoparticles Of Chitosan And Polyethyleneglycol As A System For The Administration Of Biologically-Active Molecules” (Advanced In Vitro Cell Technologies, S.L., priority 2005, published 2008)", "key": {"[1]": {"test_system": "diabetic rats", "assay": "glycemic response to an oral glucose administration after intranasal insulin formulations", "assay_type": "in vivo", "conditions": "10 U/kg insulin intranasal, compared with acetate buffer", "experimental": "Diabetic rats which had fasted overnight were used to carry out this experiment. Each of the preparations described in Example 7 was nasally administered to them. After one hour, each group of rats received an oral glucose administration of 2 g per each kg of body mass. The blood sugar was measured in blood from samples collected from the tail vein before the glucose administration and after 10, 20, 30, 60, 90 and 120 minutes."}, "[2]": {"test_system": "streptozotocin diabetic male Wistar rats", "assay": "blood sugar after intranasal administration of insulin formulations in diabetic rats", "assay_type": "in vivo", "conditions": "10 U/kg insulin intranasal, compared with acetate buffer or with chitosan-PEG nanoparticles", "experimental": "To encapsulate insulin in the chitosan nanoparticles, 2.4 mg of insulin were previously dissolved in an NaOH solution to which 1.2 mL of TPP were later added. This mixture was later added to 3 mL of chitosan. After 5 min with magnetic stirring, the preparation was centrifuged at 10,000 g for 40 min. The supernatant was removed and the precipitate was dissolved in a buffer. For its part, the same process was carried out to prepare the chitosan-PEG nanoparticles, but adding 10 mg/mL of PEG 400 to 2 mg/mL of chitosan.\nThe rats were considered diabetic when the blood sugar concentration was greater than 400 mg/dl after three weeks of the treatment with streptozotocin.\nFasting rats were used to carry out this experiment. They were divided into different groups depending on the formulation which was to be administered to them. […]\nTo determine the blood glucose levels, blood samples were collected from the tail vein before the nasal administration and every quarter of an hour until 90 minutes were completed. […] The blood glucose level was immediately determined using a glucose analyzer (Prestige from Chronolyss). […]"}}, "data": [{"substance": "insulin", "values": [{"measurement": "effect on glycemic response to oral glucose (in words)", "setting": "[1]", "value": "did not significantly change this result"}, {"measurement": "effect on blood sugar (in words)", "setting": "[2]", "value": "did not significantly change the previous result"}]}]}
